Data published in patent US11000033B2, “Ketone or oxime compound, and herbicide” (NISSAN CHEMICAL CORPORATION, priority 2014, dated 2021).

Assays:
Format in all cases: in vivo
[1] = system: Lolium multiflorum Lam.; assay: Test Example 5: herbicidal effect by foliage application, plastic box (symbol K); conditions: 320 g/ha, 3 weeks after application
In short: (§1)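 Sowing in sterilized diluvial soil, 14 days' greenhouse growth at 25° C. to 30° C., then uniform small-sprayer foliar application of aqueous emulsion dilution; plants scored three weeks afterwards.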

[2] = system: Monochoria vaginalis; assay: Test Example 1: herbicidal activity, application before weed generation in submerged conditions (symbol C); conditions: application herbicide amount 320 g/ha
In short: (§2)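 Weeds are sown into submerged alluvial soil alongside transplanted 2.5-leaf rice, and the compound, as an emulsion diluted to a set rate, is applied onto the water before emergence. Rating on the 0–5 herbicidal-ratio scale follows 3 weeks of greenhouse growth at 25–30 °C.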

[3] = system: soybean; assay: Test Example 5: effect on crop by foliage application, plastic box (symbol d); conditions: 320 g/ha, 3 weeks after application
In short: (§3)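 Sterilized diluvial soil, plastic box (21 × 13 × 7 cm); spot sowing, ~1.5 cm soil cover; greenhouse 25–30° C.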

[4] = system: rapeseed; assay: Test Example 4: effect on crop by soil treatment (symbol g); conditions: application herbicide amount 320 g/ha
In short: (§4)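 Grown at 25° C. to 30° C. in a greenhouse, the crops came from seed sown spot-wise in sterilized diluvial soil under roughly 1.5 cm of covering soil.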

[5] = system: Chenopodium album; assay: Test Example 5: herbicidal effect by foliage application, plastic box (symbol O); conditions: 320 g/ha, 3 weeks after application
In short: as §1

[6] = system: Scirpus juncoides; assay: Test Example 2: herbicidal activity, application during weed generation in submerged conditions (symbol B); conditions: Table 23; application herbicide amount 320 g/ha; grade 0-5 by criteria of Test Example 1
In short: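 Paddy pot test, submerged (4 cm water), alluvial soil, mixed sowing; greenhouse 25–30° C. Emulsion formulation diluted to predetermined rate, applied onto floodwater at 1–2 leaf stage. Visual herbicidal rating at 3 wk post-treatment.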

[7] = system: corn; assay: Test Example 5: effect on crop by foliage application, plastic box (symbol c); conditions: 320 g/ha, 3 weeks after application
In short: as §3

[8] = system: Veronica persica; assay: Test Example 5: herbicidal effect by foliage application, plastic box (symbol R); conditions: 320 g/ha, 3 weeks after application
In short: as §1

[9] = system: rice; assay: Test Example 4: effect on crop by soil treatment (symbol b); conditions: application herbicide amount 320 g/ha
In short: as §4

[10] = system: Digitaria ciliaris; assay: Test Example 5: herbicidal effect by foliage application, plastic box (symbol F); conditions: 320 g/ha, 3 weeks after application
In short: as §1

[11] = system: Scirpus juncoides; assay: Test Example 1: herbicidal activity, application before weed generation in submerged conditions (symbol B); conditions: application herbicide amount 320 g/ha
In short: as §2

[12] = system: Avena fatua; assay: Test Example 4: herbicidal effect by soil treatment (symbol I); conditions: application herbicide amount 320 g/ha
In short: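 Seeds were sown in sterilized diluvial soil, covered with about 1.5 cm of soil, and the soil surface was sprayed with a water-diluted emulsion of the compound at a predetermined rate. Plants grew in a greenhouse at 25° C. to 30° C.; effects were scored visually 3 weeks after application.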

[13] = system: corn; assay: Test Example 4: effect on crop by soil treatment (symbol c); conditions: application herbicide amount 320 g/ha
In short: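 The test used sterilized diluvial soil. Seed was set down in spots and overlaid with about 1.5 cm of soil before growth in a greenhouse kept at 25° C. to 30° C.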

SMILES | K: Lolium multiflorum Lam., herbicidal effect (criteria of Test Example 1) [1] | Herbicidal effect grade, C: Monochoria vaginalis [2] | d: soybean, effect on crop (criteria of Test Example 1) [3] | Herbicidal effect grade, B: Scirpus juncoides [6] | c: corn, effect on crop (criteria of Test Example 1) [7] | R: Veronica persica, herbicidal effect (criteria of Test Example 1) [8] | F: Digitaria ciliaris, herbicidal effect (criteria of Test Example 1) [10] | Herbicidal effect grade, B: Scirpus juncoides [11] | other results
CON=C(C)CC1CC(O)=C(c2c(C)cc(-c3ccc(OC(F)(F)F)cc3)cc2C)C1=O (mixture of isomers) [6-056] | 4 (Herbicidal ratio of 70% or higher and lower than 90%) | 0 (Herbicidal ratio of 5% or lower (almost no effect)) | 0 (Herbicidal ratio of 5% or lower (almost no effect)) | 0 (Herbicidal ratio of 5% or lower (almost no effect)) | 1 (Herbicidal ratio of 5% or higher and lower than 20%) | 0 (Herbicidal ratio of 5% or lower (almost no effect)) | 5 (Herbicidal ratio of 90% or more (almost completely withered)) | 0 (Herbicidal ratio of 5% or lower (almost no effect)) | g: rapeseed, effect on crop grade [4]: 0 (Herbicidal ratio of 5% or lower (almost no effect)); O: Chenopodium album, herbicidal effect (criteria of Test Example 1) [5]: 3 (Herbicidal ratio of 40% or higher and lower than 70%); b: directly sowed rice plant, effect on crop grade [9]: 1 (Herbicidal ratio of 5% or higher and lower than 20%); I: Avena fatua, herbicidal effect grade [12]: 0 (Herbicidal ratio of 5% or lower (almost no effect)); c: corn, effect on crop grade [13]: 0 (Herbicidal ratio of 5% or lower (almost no effect))
CON=C(C)CC1CC(OC(=O)C(C)(C)CCl)=C(c2c(C)cc(C)cc2C)C1=O (centres unmarked) [1-016] |  | 4 (Herbicidal ratio of 70% or higher and lower than 90%) |  | 4 (Herbicidal ratio of 70% or higher and lower than 90%) |  |  |  | 5 (Herbicidal ratio of 90% or more (almost completely withered)) | K: Lolium multiflorum Lam., herbicidal effect grade [1]: 5 (Herbicidal ratio of 90% or more (almost completely withered)); d: soybean, effect on crop grade [3]: 4 (Herbicidal ratio of 70% or higher and lower than 90%); g (rapeseed) effect on crop grade [4]: 4 (Herbicidal ratio of 70% or higher and lower than 90%); O: Chenopodium album, herbicidal effect grade [5]: 2 (Herbicidal ratio of 20% or higher and lower than 40%); c: corn, effect on crop grade [7]: 4 (Herbicidal ratio of 70% or higher and lower than 90%); R: Veronica persica, herbicidal effect grade [8]: 4 (Herbicidal ratio of 70% or higher and lower than 90%); b (directly sowed rice plant) effect on crop grade [9]: 5 (Herbicidal ratio of 90% or more (almost completely withered)); F: Digitaria ciliaris, herbicidal effect grade [10]: 5 (Herbicidal ratio of 90% or more (almost completely withered)); I (Avena fatua) herbicidal effect grade [12]: 5 (Herbicidal ratio of 90% or more (almost completely withered)); c (corn) effect on crop grade [13]: 4 (Herbicidal ratio of 70% or higher and lower than 90%)
CCc1cc(Br)cc(C)c1C1=C(O)CC(C(C(C)=O)C(=O)OC)C1=O (centres unmarked) [7-001] | 5 (Herbicidal ratio of 90% or more (almost completely withered)) | 0 (Herbicidal ratio of 5% or lower (almost no effect)) | 0 (Herbicidal ratio of 5% or lower (almost no effect)) | 0 (Herbicidal ratio of 5% or lower (almost no effect)) | 2 (Herbicidal ratio of 20% or higher and lower than 40%) | 0 (Herbicidal ratio of 5% or lower (almost no effect)) | 5 (Herbicidal ratio of 90% or more (almost completely withered)) | 0 (Herbicidal ratio of 5% or lower (almost no effect)) | Effect on crop grade, g: rapeseed [4]: 0 (Herbicidal ratio of 5% or lower (almost no effect)); Effect on crop grade, b: directly sowed rice plant [9]: 4 (Herbicidal ratio of 70% or higher and lower than 90%); Herbicidal effect grade, I: Avena fatua [12]: 3 (Herbicidal ratio of 40% or higher and lower than 70%); Effect on crop grade, c: corn [13]: 0 (Herbicidal ratio of 5% or lower (almost no effect))
